Results from US5705630A, “2'-methylidenepyrimidine nucleoside compounds” (Yoshitomi Pharmaceutical Industries, Ltd., priority 1988, dated 1998).

Test: solubility (general statement)
Format: physicochemical
Details: with respect to pharmaceutical production

solubility: inferior in solubility
SMILES: C=C1[C@H](n2ccc(N)nc2=O)O[C@H](CO)[C@H]1O [2'-deoxy-2'-methylidenecytidine]
